assay: Effective concentration required to achieve 50% inhibition of HIV-1 LAI replication in human T4 lymphoblastoid CEM-SS cells.

Point of comparison: `CCc1c(Sc2cc(C)cc(C)c2)n(CCCCC(=O)OC)c(=O)[nH]c1=O`, EC50 0.025 µM. Against it:
- CCc1c(Sc2cc(C)cc(C)c2)n(CCCCC(=O)NCCCCCCCCCCCCNc2ccn(C3CCC(CO)O3)c(=O)n2)c(=O)[nH]c1=O (configuration not stated) — 17-fold higher, 0.43 µM
- CCc1c(C)[nH]c(=O)c(NC(=O)CCCC(=O)O)c1Cc1cc(C)cc(C)c1 — 180-fold higher, 4.5 µM
- CCc1c(C)[nH]c(=O)c(NC(=O)CNC(=O)CNC(=O)OC(C)(C)C)c1Cc1cc(C)cc(C)c1 — 130-fold higher, 3.2 µM
- COC(=O)CCCNC(=O)CCc1cn(C2CC(N=[N+]=[N-])C(CO)O2)c(=O)[nH]c1=O (configuration not stated) — higher, > 100 µM
- CCc1c(C)[nH]c(=O)c(NC(=O)CCCCCCCCCN)c1Cc1cc(C)cc(C)c1 — 2300-fold higher, 58 µM
- CCc1c(C)[nH]c(=O)c(NC(=O)CCCCCCCCC(=O)O)c1Cc1cc(C)cc(C)c1 — 2800-fold higher, 70 µM
- CCc1c(C)[nH]c(=O)c(NC(=O)CNC(=O)CN)c1Cc1cc(C)cc(C)c1 — 29-fold higher, 0.72 µM
- CCc1c(Sc2cc(C)cc(C)c2)n(CCCCC(=O)NCCCCNC(=O)CCc2cn(C3CC(N=[N+]=[N-])C(CO)O3)c(=O)[nH]c2=O)c(=O)[nH]c1=O (configuration not stated) — 130-fold higher, 3.3 µM
- CCc1c(C)[nH]c(=O)c(NC(=O)CCCC(=O)OC)c1Cc1cc(C)cc(C)c1 — 960-fold higher, 24 µM
- COC(=O)CCc1cn(C2CC(N=[N+]=[N-])C(CO)O2)c(=O)[nH]c1=O (configuration not stated) — higher, > 100 µM
- CCc1c(C)[nH]c(=O)c(NC(=O)CCCCCCCCCNC(=O)OC(C)(C)C)c1Cc1cc(C)cc(C)c1 — higher, > 10 µM
- CCc1c(Sc2cc(C)cc(C)c2)n(CCCCC(=O)NCCCCCCCCCCNC(=O)CCn2c(=O)c(C)cn(C3CC(N=[N+]=[N-])C(CO)O3)c2=O)c(=O)[nH]c1=O (configuration not stated) — 110-fold higher, 2.8 µM
- CCc1c(Sc2cc(C)cc(C)c2)n(CCCCC(=O)NCCCCCCCCCCNC(=O)CCc2cn(C3CC(N=[N+]=[N-])C(CO)O3)c(=O)[nH]c2=O)c(=O)[nH]c1=O (configuration not stated) — 68-fold higher, 1.7 µM
- CCOC(=O)CCn1c(=O)c(C)cn(C2CC(N=[N+]=[N-])C(CO)O2)c1=O (configuration not stated) — 32-fold higher, 0.8 µM
- [N-]=[N+]=NC1CC(n2cc(CCC(=O)NCCCCN)c(=O)[nH]c2=O)OC1CO (configuration not stated) — higher, > 100 µM
- NCCCCCCCCCCCCNc1ccn(C2CCC(CO)O2)c(=O)n1 (configuration not stated) — 310-fold higher, 7.8 µM
- CCc1c(C)[nH]c(=O)c(NC(=O)CCCCCCCCC(=O)OC)c1Cc1cc(C)cc(C)c1 — higher, > 10 µM
- [N-]=[N+]=NC1CC(n2cc(CCC(=O)NCCCCCCCCCCN)c(=O)[nH]c2=O)OC1CO (configuration not stated) — 800-fold higher, 20 µM
- Cc1cn([C@H]2C[C@H](N=[N+]=[N-])[C@@H](CO)O2)c(=O)[nH]c1=O [1-((2R,4S,5S)-4-Azido-5-hydroxymethyl-tetrahydro-furan-2-yl)-5-methyl-1H-pyrimidine-2,4-dione] — 12-fold lower, 0.002 µM
- CCc1c(C)[nH]c(=O)c(N)c1Cc1cc(C)cc(C)c1 [3-amino-4-[(3,5-dimethylphenyl)methyl]-5-ethyl-6-methyl-1,2-dihydropyridin-2-one] — within 1.5-fold, 0.017 µM
- Nc1ccn([C@H]2CC[C@@H](CO)O2)c(=O)n1 [Dideoxycytidine] — within 1.5-fold, 0.031 µM
